Patent US20250188082A1, “Use of Hypoxanthine Compound In Preparation of Drug For Treating Pulmonary Fibrosis” (Sichuan Yiasuo Pharmaceutical Technology Co., Ltd., priority 2022, published 2025)

Key:
Assay type in all cases: in vivo, C57BL/6 mice
[1] = system: bleomycin-induced pulmonary fibrosis model; experiment: Advanced pulmonary fibrosis: bleomycin-induced model, dosing from three weeks after modelling; conditions: for Leucocyte / Lymphocyte / Neutrophil / Ashcroft scores: advanced pulmonary fibrosis, 120 mg/kg/d intragastric, 14 days, from three weeks after model; for Leucocyte / Lymphocyte / Neutrophil: blood, Day 15, twice every day; for Ashcroft scores: lung tissue HE staining
[2] = system: coronavirus-induced pulmonary fibrosis model (HcoV-OC43); experiment: Coronavirus-induced pulmonary fibrosis model; conditions: 120 mg/kg/d intragastric, 14 days; for Ashcroft scores: coronavirus HcoV-OC43 + bleomycin, lung tissue HE; for IL-1β / IL-6 / NF-κB / TNF-α: serum, HcoV-OC43 + bleomycin, from two weeks after model
From the text: Experimental method: an in-vivo coronavirus-induced pulmonary fibrosis model mice was established: C57BL/6 mice (with weights being 22-25 g) were randomly and evenly divided into a plurality of groups, including blank control group, model group, Nintedanib positive control group, hypoxanthine analogue A group, hypoxanthine analogue B group, hypoxanthine analogue C group, compound 1 group, compound 2 group . . . compound 12 group, with 9 mice in each group. On Day 1, the mice in the blank control group were instilled with normal saline nasally, and the mice in other groups were all infected with HcoV-OC43 coronavirus strains (30 μL) through nasal instillation. On Day 2, the mice received 5 mg/kg bleomycin through tracheas to induce their pulmonary fibrosis. After the model was established for two weeks, the mice in each group were intragastrically administrated for intervention for consecutive 14 days; the mice in blank control group and model group intragastrically received the same dosage of the normal saline as those in drug groups; the mice in Nintedanib positive control group received Nintedanib (120 mg/kg); the mice in hypoxanthine analogue A group, hypoxanthine analogue B group and hypoxanthine analogue C group respectively received hypoxanthine analogue A (120 mg/kg/d), hypoxanthine analogue B (120 mg/kg/d) and hypoxanthine analogue C (120 mg/kg/d); and the mice in compound 1 group, compound 2 group . . . compound 12 group respectively received compound 1 (120 mg/kg/d), compound 2 (120 mg/kg/d) . . . compound 12 (120 mg/kg/d) prepared in example 1. After administration for consecutive 14 days, the mice were observed every day, and their weights and death conditions were recorded. After administration, blood was taken from eyeballs for immediately detecting the expression levels of NF-κB, TNF-α, IL-1 and IL-6 in serum, and lung tissues were taken for HE detection and Ashcroft scoring.

[3] = system: mycoplasma-induced pulmonary fibrosis model (MPFH strain); experiment: Mycoplasma-induced pulmonary fibrosis model; conditions: 120 mg/kg/d intragastric, 14 days; for Leucocyte / Lymphocyte / Neutrophil: MPFH mycoplasma + bleomycin, once a day, from two weeks after model; for Ashcroft scores: mycoplasma + bleomycin, lung tissue HE
From the text: Experimental method: an in-vivo mycoplasma-induced pulmonary fibrosis model was established: C57BL/6 mice (with weights being 22-25 g) were randomly and evenly divided into a plurality of groups, including blank control group, model group, Nintedanib positive control group, hypoxanthine analogue A group, hypoxanthine analogue B group, hypoxanthine analogue C group, compound 1 group, compound 2 group . . . compound 12 group, with 9 mice in each group. Before a model was established, the mice were anesthetized with diethyl ether. In addition to that the mice in blank control group with instilled with 100 μL of normal saline nasally, the mice in other groups with slowly instilled with an equal volume of a MPFH strain solution (containing 1×10^7 mL^−1 MPFH strain) to the nasal cavity, for consecutive 3 days, and inhaled the MPFH strain solution into bronchi. After instillation with mycoplasmas through tracheas, the mice received 5 mg/kg bleomycin through tracheas to induce their pulmonary fibrosis. After the model was established for two weeks, the mice in each group were intragastrically administrated for intervention for consecutive 14 days; the mice in blank control group and model group intragastrically received an equal dosage of normal saline as those in drug groups; the mice in Nintedanib positive control group received Nintedanib (120 mg/kg); the mice in hypoxanthine analogue A group, hypoxanthine analogue B group and hypoxanthine analogue C group respectively received hypoxanthine analogue A (120 mg/kg/d), hypoxanthine analogue B (120 mg/kg/d) and hypoxanthine analogue C (120 mg/kg/d); and the mice in compound 1 group, compound 2 group . . . compound 12 group respectively received compound 1 (120 mg/kg/d), compound 2 (120 mg/kg/d) . . . compound 12 (120 mg/kg/d) prepared in example 1. The mice were administrated once a day to be treated for consecutive 14 days. The mice were observed every day, and their weights and death conditions were recorded. On the last day of administration, the mice were sacrificed; and blood was taken from eyeballs and kept at −80° C. for detecting blood routine indexes. Meanwhile, lungs were lavaged with normal saline and separated to collect lavage fluids for detecting counts and classes of leucocytes; and lung tissues were taken for HE straining and Ashcroft scoring on the extent of pulmonary fibrosis.

Compound | Leucocyte [1] | Lymphocyte [1] | Neutrophil [1] | Ashcroft scores [1] | inhibition (anti-inflammatory) effect on leucocytes, neutrophils and lymphocytes in blood ([1]; mice with advanced pulmonary fibrosis, result in words) | Ashcroft scores [2] | IL-1β [2] | IL-6 [2] | NF-κB [2] | TNF-α [2] | Leucocyte [3] | Lymphocyte [3] | Neutrophil [3] | Ashcroft scores [3]
O=c1[nH]cnc2[nH]cnc12 [Hypoxanthine analogue A, reference compound] | 66.48 10^9/L | 71.65 10^9/L | 67.48 10^9/L | 5.88 | obviously inferior | 6.23 | 688.8 pg/mL | 519.4 pg/mL | 719.1 pg/mL | 450.7 pg/mL | 116.79 10^9/L | 567.15 10^9/L | 234.53 10^9/L | 6.64
CC(C)Oc1ncnc2c1N(C(C)C)CN2C(C)C [Compound 10] | 4.26 10^9/L | 5.71 10^9/L | 1.38 10^9/L | 1.16 |  | 1.41 | 37.7 pg/mL | 68.2 pg/mL | 25.3 pg/mL | 56.2 pg/mL | 6.18 10^9/L | 72.54 10^9/L | 21.11 10^9/L | 1.45
CCCOc1ncnc2c1ncn2C(C)C [Compound 9] | 4.69 10^9/L | 5.69 10^9/L | 1.46 10^9/L | 1.11 |  | 1.31 | 35.9 pg/mL | 64.3 pg/mL | 24.4 pg/mL | 55.1 pg/mL | 6.79 10^9/L | 73.19 10^9/L | 22.06 10^9/L | 1.38
CCOc1ncnc2c1ncn2C(C)C [Compound 8] | 4.59 10^9/L | 5.73 10^9/L | 1.42 10^9/L | 1.21 |  | 1.29 | 36.6 pg/mL | 66.7 pg/mL | 28.3 pg/mL | 56.1 pg/mL | 7.26 10^9/L | 72.52 10^9/L | 23.62 10^9/L | 1.26
